The source of these data is patent US20200352931A1, “OXALAMIDES AS MODULATORS OF INDOLEAMINE 2,3-DIOXYGENASE” (PHENEX DISCOVERY VERWALTUNGS-GMBH, priority 2017, published 2020).

The target in the assay is T1, Indoleamine 2,3-Dioxygenase (IDO1) in SKOV-3 cells (Homo sapiens, UniProt P14902).
T1 construct: endogenous in cells; host or cells: SKOV-3 (ATCC HTB-77), stimulated with 50 ng/ml interferon gamma
T1 sequence (P14902 whole entry): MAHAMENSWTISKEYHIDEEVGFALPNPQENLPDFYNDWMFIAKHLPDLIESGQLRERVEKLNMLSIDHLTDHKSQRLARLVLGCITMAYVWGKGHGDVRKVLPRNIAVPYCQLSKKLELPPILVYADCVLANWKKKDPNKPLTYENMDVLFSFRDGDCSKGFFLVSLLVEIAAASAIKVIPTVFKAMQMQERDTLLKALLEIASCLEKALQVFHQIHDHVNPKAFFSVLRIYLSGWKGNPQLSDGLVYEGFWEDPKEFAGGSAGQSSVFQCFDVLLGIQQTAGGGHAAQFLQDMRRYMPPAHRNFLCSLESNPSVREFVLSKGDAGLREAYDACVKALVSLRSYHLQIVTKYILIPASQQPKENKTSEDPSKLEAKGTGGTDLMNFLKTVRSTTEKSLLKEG
Kind of assay: SKOV-3 cellular indoleamine 2,3-dioxygenase assay. Particulars: 50 ng/ml Interferon gamma, 100 μM L-Tryptophan, 24 hours, N-Formylkynurenin fluorescence, read-out: cell based activity (IC50). On the procedure: SKOV-3 Cellular Indoleamine 2,3-Dioxygenase Assay
SKOV-3 cells were obtained from the American Type Culture Collection (ATCC® HTB-77™) and maintained in McCoy's medium (Pan Biotech) supplemented with 10% fetal bovine serum and 1% Penicilin/Streptomycin. Cells were kept at 37° C. in a humidified incubator with 5% CO2. For assay preparation, cells were seeded at a density of 2*10^5/m into black clear bottom 96 well plates in 100 μl medium/well supplemented with 50 ng/ml Interferon gamma (eBioscience, Thermo Fisher Scientific). After cells fully adhered to the plate, dilution series of compounds were added in medium containing additional L-Tryptophan to a final L-Tryptophan concentration of 100 μM. The cells were incubated for 24 hours. Detection of produced N-Formylkynurenin was performed by addition of 3-Methylpiperidine to a final concentration of 200 mM. The plates were sealed and heated to 65° C. for 20 minutes in a water bath. After cooling the fluorescence of each well was recorded with a Victor™ X4 (PerkinElmer) plate reader at an emission wavelength of 535 nm and excitation at 405 nm (Tomek et al.; Anal Bioanal Chem (2013) 405:2515-2524., Tomek et al.; Biochim Biophys Acta. 2015 September; 1850(9):1772-80).
For the molecule `O=C(Nc1ccc(Cl)cc1)C(=O)N1CC[C@H](c2ccnc3ccc(F)cc23)[C@H](O)C1` (single isomer, unassigned) [10/1a], the IC50 (in general, the midpoint of a concentration-inhibition curve) was in the range of 100 to 1000 nM. The value for `O=C(Nc1ccc(Cl)cc1)C(=O)N1CC[C@@H](c2ccnc3ccc(F)cc23)[C@@H](O)C1` (single isomer, unassigned) [10/1b] was more than 1000 nM; that for `CO[C@@H]1CN(C(=O)C(=O)Nc2ccc(Cl)cc2)CC[C@H]1c1ccnc2ccc(F)cc12` (single isomer, unassigned) [10/2a] was less than 100 nM. The value for `CO[C@H]1CN(C(=O)C(=O)Nc2ccc(Cl)cc2)CC[C@@H]1c1ccnc2ccc(F)cc12` (single isomer, unassigned) [10/2b] was less than 100 nM. `O=C(Nc1ccc(Cl)cc1)C(=O)N1CC[C@@H](c2ccnc3ccc(F)cc23)[C@H](O)C1` (single isomer, unassigned) [Example 10a, trans-N-(4-Chlorophenyl)-2-(4-(6-fluoroquinolin-4-yl)-3-hydroxypiperidin-1-yl)-2-oxoacetamide]: the IC50 is less than 100 nM. For `O=C(Nc1ccc(Cl)cc1)C(=O)N1CC[C@@H](c2ccnc3ccc(F)cc23)[C@H](O)C1` (single isomer, unassigned) [Example 10b, trans-N-(4-Chlorophenyl)-2-(4-(6-fluoroquinolin-4-yl)-3-hydroxypiperidin-1-yl)-2-oxoacetamide], the IC50 was less than 100 nM.

As for `O=C(Nc1ccc(Cl)cc1)C(=O)N1CCC(c2ccccc2)CC1` [1/1], the IC50 is less than 100 nM. Next, `O=C(Nc1ccc(Cl)cc1F)C(=O)N1CCC(c2ccnc3ccccc23)CC1` [1/2]: less than 100 nM; `O=C(Nc1ccc(Cl)cc1)C(=O)N1CCC(c2ccnc3ccccc23)CC1` [1/3]: less than 100 nM.

Take `O=C(Nc1ccc(Cl)cc1F)C(=O)N1CCC(c2cc(C(F)(F)F)nc3ccccc23)CC1` [1/4]: the IC50 was in the range of 100 to 1000 nM. On to `O=C(Nc1ccc(Cl)cc1F)C(=O)N1CCC(c2ccnc3ccnn23)CC1` [1/5], for which the IC50 is 100 to 1000 nM. Regarding `O=C(Nc1ccc(Cl)cc1F)C(=O)N1CCC(c2ccnc3ccc(F)cc23)CC1` [1/6], the IC50 was less than 100 nM. The value for `O=C(Nc1ccc(Cl)cc1F)C(=O)N1CCC(c2ccccc2)C1` (stereo not shown) [1/7] was more than 1000 nM.

For the molecule `O=C(Nc1ccc(Cl)cn1)C(=O)N1CCCC(c2ccnc3ccccc23)CC1` (stereo not shown) [1/8], the IC50 was less than 100 nM. The value for `O=C(Nc1ccc(Cl)cn1)C(=O)N1CCC(O)(c2ccnc3ccccc23)CC1` [1/9] was more than 1000 nM; that for `O=C(Nc1ccc(Cl)cn1)C(=O)N1C2CCC1CC(c1ccnc3ccccc13)C2` (stereo not shown) [1/10] was 100 to 1000 nM; that for `CC1(C)CC(c2ccnc3ccccc23)CCN1C(=O)C(=O)Nc1ccc(Cl)cn1` (stereo not shown) [1/11] was less than 100 nM.

Turning to `O=C(Nc1ccc(Cl)cc1F)C(=O)N1CCC=C(c2ccnc3ccc(F)cc23)CC1` [1/12], the IC50 was less than 100 nM. The value for `N#Cc1ccc(NC(=O)C(=O)N2CCC(c3ccnc4ccc(F)cc34)CC2)cc1` [1/14] was less than 100 nM.

Take `O=C(Nc1cccc(C(F)(F)F)c1)C(=O)N1CCC(c2ccnc3ccc(F)cc23)CC1` [1/15]: the IC50 was 100 to 1000 nM. The value for `O=C(Nc1ccc(F)c(Cl)c1)C(=O)N1CCC(c2ccccc2)CC1` [1/16] was more than 1000 nM; that for `O=C(Nc1ccc(C(F)(F)F)cc1F)C(=O)N1CCC(c2ccnc3ccc(F)cc23)CC1` [1/17] was less than 100 nM.

As for `O=C(Nc1ccc(Cl)c(F)c1)C(=O)N1CCC(c2ccnc3ccc(F)cc23)CC1` [1/18], the IC50 is less than 100 nM. `O=C(Nc1cc(F)c(Cl)cc1F)C(=O)N1CCC(c2ccnc3ccc(F)cc23)CC1` [1/19]: the half-inhibitory concentration (IC50) is less than 100 nM. The value for `O=C(Nc1ccc(C(F)(F)F)c(Cl)c1)C(=O)N1CCC(c2ccnc3ccc(F)cc23)CC1` [1/20] was more than 1000 nM. Next, `O=C(Nc1ccc(C(F)(F)F)c(F)c1)C(=O)N1CCC(c2ccnc3ccc(F)cc23)CC1` [1/21]: 100 to 1000 nM; `O=C(Nc1ccc(C(F)F)cc1)C(=O)N1CCC(c2ccnc3ccc(F)cc23)CC1` [1/22]: less than 100 nM; `N#Cc1ccc(NC(=O)C(=O)N2CCC(c3ccnc4ccc(F)cc34)CC2)c(F)c1` [1/23]: less than 100 nM. The value for `Cc1ccc(NC(=O)C(=O)N2CCC(c3ccnc4ccc(F)cc34)CC2)c(F)c1` [1/24] was less than 100 nM. With `O=C(Nc1ccc(C(F)F)cc1F)C(=O)N1CCC(c2ccnc3ccc(F)cc23)CC1` [1/25], the IC50 was less than 100 nM. The value for `O=C(Nc1ccc(Br)cc1F)C(=O)N1CCC(c2ccnc3ccc(F)cc23)CC1` [1/26] was less than 100 nM. Next, `O=C(Nc1ccc(Br)cc1)C(=O)N1CCC(c2ccnc3ccc(F)cc23)CC1` [1/27]: less than 100 nM. As for `O=C(Nc1ccc(F)cc1)C(=O)N1CCC(c2ccnc3ccc(F)cc23)CC1` [1/28], the 50% inhibitory concentration (IC50) is less than 100 nM.

`O=C(Nc1ncc(Cl)cc1F)C(=O)N1CCC(c2ccnc3ccc(F)cc23)CC1` [1/29]: the IC50 is less than 100 nM. For the molecule `O=C(Nc1ccc(Cl)cc1)C(=O)N1CCC(c2ccnc3c(F)cc(F)cc23)CC1` [1/30], the IC50 was less than 100 nM.

`O=C(Nc1ccc(Cl)cc1)C(=O)N1CCC(c2ccnc3cc(F)ccc23)CC1` [1/31]: the IC50 was less than 100 nM. `Cc1cc(Cl)ccc1NC(=O)C(=O)N1CCC(c2ccnc3ccc(F)cc23)CC1` [1/32]: the IC50 is 100 to 1000 nM.

Consider `O=C(Nc1ccc(Cl)cn1)C(=O)N1CCC(c2cc(OC(F)F)nc3ccccc23)CC1` [1/33], for which the concentration for half-maximal inhibition (IC50) is more than 1000 nM. In the case of `COc1cc(C2CCN(C(=O)C(=O)Nc3ccc(Cl)cn3)CC2)c2ccccc2n1` [1/34], the IC50 was more than 1000 nM.

As for `O=C(Nc1ccc(Cl)cn1)C(=O)N1CCC(F)(c2ccnc3ccccc23)CC1` [1/35], the IC50 lay within 100 to 1000 nM. The value for `O=C(Nc1ccc(CC(F)(F)F)cc1)C(=O)N1CCC(c2ccnc3ccc(F)cc23)CC1` [1/36] was 100 to 1000 nM; that for `O=C(Nc1ccc(OC(F)(F)F)cc1)C(=O)N1CCC(c2ccnc3ccc(F)cc23)CC1` [1/37] was less than 100 nM. Next, `O=C(Nc1ccc(SC(F)(F)F)cc1)C(=O)N1CCC(c2ccnc3ccc(F)cc23)CC1` [1/38]: less than 100 nM. Take `O=C(Nc1ccc(OC(F)F)cc1)C(=O)N1CCC(c2ccnc3ccc(F)cc23)CC1` [1/39]: the IC50 was less than 100 nM. Next, `O=C(Nc1ccc(OC(F)F)cc1F)C(=O)N1CCC(c2ccnc3ccc(F)cc23)CC1` [1/40]: less than 100 nM. Turning to `O=C(Nc1ccc(OCC(F)(F)F)cc1)C(=O)N1CCC(c2ccnc3ccc(F)cc23)CC1` [1/41], the 50% inhibitory concentration (IC50) was in the range of 100 to 1000 nM. Take `CC(C)(O)c1ccc2nccc(C3CCN(C(=O)C(=O)Nc4ccc(Cl)cc4)CC3)c2c1` [1/42]: the IC50 is more than 1000 nM. The value for `NC(=O)c1ccc2nccc(C3CCN(C(=O)C(=O)Nc4ccc(Cl)cc4)CC3)c2c1` [1/43] was more than 1000 nM. Next, `N#Cc1ccc2nccc(C3CCN(C(=O)C(=O)Nc4ccc(Cl)cc4)CC3)c2c1` [1/44]: 100 to 1000 nM. Next, `CC1(C)CN(C(=O)C(=O)Nc2ccc(Cl)cc2)CCC1c1ccnc2ccc(F)cc12` (stereo not shown) [1/45]: less than 100 nM; `O=C(Nc1ccc(Cl)cc1)C(=O)N1CCC(c2ccnc3ccc(F)cc23)C(F)(F)C1` (stereo not shown) [1/46]: less than 100 nM; `O=C(Nc1ccc(Cl)cc1)C(=O)N1CCC(c2ccnc3ccc(Cl)cc23)CC1` [1/47]: less than 100 nM. Regarding `O=C(Nc1ccc(Cl)cc1)C(=O)N1CCC(c2ccnc3cc(Cl)ccc23)CC1` [1/48], the IC50 was less than 100 nM.

With `O=C(NCc1ccc(Cl)cc1)C(=O)N1CCC(c2ccnc3ccc(F)cc23)CC1` [2/1], the IC50 was more than 1000 nM. Next, `O=C(NCc1ccc(Cl)o1)C(=O)N1CCC(c2ccnc3ccc(F)cc23)CC1` [2/2]: more than 1000 nM. The value for `CN(C(=O)C(=O)N1CCC(c2ccnc3ccc(F)cc23)CC1)c1ccc(Cl)cn1` [2/3] was more than 1000 nM; that for `O=C(Nc1ccc(Cl)cn1)C(=O)N1CCC(c2ccnc(C(F)(F)F)c2Cl)CC1` [2/4] was 100 to 1000 nM; that for `O=C(Nc1ccc(Cl)cn1)C(=O)N1CCC(c2cccc(Cl)c2Cl)CC1` [2/5] was 100 to 1000 nM. The value for `N#Cc1ccc(C2CCN(C(=O)C(=O)Nc3ccc(Cl)cn3)CC2)c2ccccc12` [2/6] was 100 to 1000 nM; that for `O=C(N[C@@H]1CCc2ccccc2C1)C(=O)N1CCC(c2ccnc3ccc(F)cc23)CC1` [5/1] was more than 1000 nM; that for `O=C(Nc1ccc(C(F)(F)F)cn1)C(=O)N1CCC(c2ccnc3ccc(F)cc23)CC1` [5/2] was 100 to 1000 nM. Regarding `Cc1nc(NC(=O)C(=O)N2CCC(c3ccnc4ccc(F)cc34)CC2)ccc1Cl` [5/3], the IC50 was 100 to 1000 nM. Next, `O=C(Nc1ccc(-c2cnccn2)cn1)C(=O)N1CCC(c2ccnc3ccc(F)cc23)CC1` [5/4]: 100 to 1000 nM. The value for `O=C(Nc1ccc(-c2cncnc2)cn1)C(=O)N1CCC(c2ccnc3ccc(F)cc23)CC1` [5/5] was more than 1000 nM; that for `Cc1nc(NC(=O)C(=O)N2CCC(c3ccnc4ccc(F)cc34)CC2)ccc1-c1cnn(C)c1` [5/6] was more than 1000 nM; that for `O=C(NC1Cc2ccccc2C1)C(=O)N1CCC(c2ccnc3ccc(F)cc23)CC1` [5/7] was 100 to 1000 nM.

Regarding `NS(=O)(=O)c1ccc(NC(=O)C(=O)N2CCC(c3ccnc4ccc(F)cc34)CC2)cc1` [5/8], the IC50 was more than 1000 nM.
